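Interpolation was linear, between the two tested concentrations surrounding the appropriate level; five concentrations were tested over 48 hours in 96-well plates. GI50: concentration for 50% inhibition of growth. TGI is the concentration that stops growth completely.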

Assay in all cases: inhibition of tumour cell growth, NCI panel, 48 h
For assay [1], the system named is A498 renal.
Assay [2] has as its system BT-549 breast.
Assay [3] concerns HOP-62 NSCLC.
Assay [4] deals with HOP-92 NSCLC.
Assay [5] relates to LOX IMVI melanoma.
The test system of assay [6] is NCI-H460 lung.
For assay [7], the system named is NCI-H522 lung.
The test system of assay [8] is SK-MEL-2 melanoma.
The subject of assay [9] is TK-10 renal.
The test system of assay [10] is U251 CNS.

Regarding `O=c1[nH]ncc(Br)c1Br`, the GI50 in [1] is 11.8 µM; in assay [2], 3.63 µM; in assay [3] it was 5.65 µM; in [4], 1.79 µM; in assay [5], 1.65 µM; in assay [6], 13.1 µM. Also, the GI50 in assay [7] is 1.71 µM; in [8], 2.16 µM; in assay [9] it was 3.45 µM; in assay [10], 1.66 µM. Further, the TGI was 24 µM in assay [1]; 12.2 µM in assay [2]; 18.1 µM in assay [3]; 3.31 µM in [4]; 3.06 µM in assay [5]; 27.4 µM in assay [6]. For the same compound, the TGI in assay [7] came to 3.25 µM; in [8], 5.62 µM; in [9], 10.7 µM; in assay [10] it was 3.02 µM.
Regarding `O=C1c2cc(Cl)ccc2S(=O)(=O)c2c(NCCCNCCO)nc3ccccc3c21`, the GI50 in [1] is 2.95 µM; in assay [2] it was 3.99 µM; in assay [3], 4.54 µM; in [4], 1.01 µM; in assay [5], 1.58 µM; in assay [6] it was 2.02 µM. The GI50 in assay [7] was 0.323 µM; in assay [8], 1.93 µM; in assay [9], 1.21 µM; in [10], 1.62 µM. Further, the TGI in assay [1] came out at 9.34 µM; in assay [2] it was 14.6 µM; in [3], 16.7 µM; in assay [4], 2.44 µM; in assay [5] it was 2.95 µM; in assay [6], 4.73 µM. Besides, the TGI in assay [7] amounted to 1.42 µM; in assay [8] it was 4.74 µM; in [9], 2.46 µM; in assay [10] it was 3.18 µM.
Turning to `COc1ccc(/C=C/c2nccc3ccccc23)cc1OC`, the TGI in assay [1], in assay [2], in assay [3], in assay [4], in [5] and in assay [6] was more than 10 µM each time. Moreover, the TGI in [7], in assay [8], in assay [9] and in [10] was more than 10 µM each time.
Take `CC(C)(C)OC(=O)N1CCc2c(sc3ncnc(N/N=C/c4cccc5ccccc45)c23)C1`: the GI50 in assay [1] is 2.3 µM; in [2], 8.45 µM; in assay [3], 3.79 µM; in [4], 2.78 µM; in assay [5], 3.84 µM; in assay [6], 3.29 µM. For the same compound, the GI50 in assay [7] was 2.26 µM; in assay [8], 4.38 µM; in assay [9], 5.89 µM; in [10], 4.25 µM. Further, the TGI in assay [1] is 9.79 µM; in assay [2], 72.9 µM; in [3], more than 100 µM; in assay [4], 92.3 µM; in assay [5], 25.5 µM; in [6], 12.7 µM. For the same compound, the TGI is 7.21 µM in assay [7], 25.9 µM in assay [8], more than 100 µM in assay [9] and more than 100 µM in assay [10].
Regarding `C=CCCCCCCCCC(=O)[O][Sn]([CH2]CCC)([CH2]CCC)[CH2]CCC`, the GI50 in [1] is 0.14 µM; in [2] it was 0.14 µM; in assay [3], 0.172 µM; in assay [4] it was 0.075 µM; in assay [5] it was 0.138 µM; in [6], 0.152 µM. The GI50 in assay [7] is 0.141 µM; in assay [8], 0.189 µM; in assay [9], 0.165 µM; in assay [10], 0.165 µM. The TGI was determined as 0.276 µM in [1]; 0.277 µM in assay [2]; 0.346 µM in assay [3]; 0.24 µM in assay [4]; 0.278 µM in assay [5]; 0.312 µM in [6]. For the same compound, the TGI in [7] came to 0.296 µM; in assay [8], 0.377 µM; in assay [9], 0.311 µM; in assay [10], 0.318 µM.
For `O=C1CCCCN1CCCCC#Cc1ccccc1C#Cc1ccc([N+](=O)[O-])cc1`, the GI50 in [1] was 4.01 µM; in assay [2] it was 16.6 µM; in assay [3], 8.01 µM; in assay [4] it was 4.39 µM; in [5], 2.79 µM; in assay [6], 2 µM. The GI50 in assay [7] was 12.3 µM; in assay [8], 3.65 µM; in assay [9] it was 7.72 µM; in assay [10], 3.79 µM. The TGI was 25 µM in [1]; 44.6 µM in assay [2]; 22.5 µM in [3]; 27.4 µM in assay [4]; 8.87 µM in assay [5]; 4.35 µM in assay [6]. In addition, the TGI in assay [7] stood at 59.5 µM; in assay [8] it was 16.7 µM; in assay [9], 30.5 µM; in assay [10] it was 14.4 µM.
For `Cn1c(=O)c2[nH]c(SCc3ccccn3)nc2n(C)c1=S`, the TGI in [1] was 55.2 µM; in [2] it was more than 100 µM; in [3] it was more than 100 µM; in assay [4] it was more than 100 µM; in assay [5] it was more than 100 µM; in assay [6] it was more than 100 µM. In addition, the TGI in [7], in [8], in assay [9] and in assay [10] was more than 100 µM in each case.

Source of the values: PubChem BioAssay (NCI).
